# Measured values taken from patent US11180487B2, “Substituted cyanoindoline derivatives as NIK inhibitors” (Janssen Pharmaceutica NV, priority 2016, dated 2021).
# Where two headings read alike, the source gives them in different places.
# What was measured:
# [1] = target: recombinant human NF-kappaB-inducing kinase (NIK/MAP3K14) (Homo sapiens, UniProt Q99558); assay: Inhibition of auto-phosphorylation of recombinant human NIK/MAP3K14 activity (AlphaScreen), Biological Assay A; assay type: biochemical; conditions: averaged values over all measurements on all batches
# Chain of recombinant human NF-kappaB-inducing kinase (NIK/MAP3K14) (Q99558 whole entry): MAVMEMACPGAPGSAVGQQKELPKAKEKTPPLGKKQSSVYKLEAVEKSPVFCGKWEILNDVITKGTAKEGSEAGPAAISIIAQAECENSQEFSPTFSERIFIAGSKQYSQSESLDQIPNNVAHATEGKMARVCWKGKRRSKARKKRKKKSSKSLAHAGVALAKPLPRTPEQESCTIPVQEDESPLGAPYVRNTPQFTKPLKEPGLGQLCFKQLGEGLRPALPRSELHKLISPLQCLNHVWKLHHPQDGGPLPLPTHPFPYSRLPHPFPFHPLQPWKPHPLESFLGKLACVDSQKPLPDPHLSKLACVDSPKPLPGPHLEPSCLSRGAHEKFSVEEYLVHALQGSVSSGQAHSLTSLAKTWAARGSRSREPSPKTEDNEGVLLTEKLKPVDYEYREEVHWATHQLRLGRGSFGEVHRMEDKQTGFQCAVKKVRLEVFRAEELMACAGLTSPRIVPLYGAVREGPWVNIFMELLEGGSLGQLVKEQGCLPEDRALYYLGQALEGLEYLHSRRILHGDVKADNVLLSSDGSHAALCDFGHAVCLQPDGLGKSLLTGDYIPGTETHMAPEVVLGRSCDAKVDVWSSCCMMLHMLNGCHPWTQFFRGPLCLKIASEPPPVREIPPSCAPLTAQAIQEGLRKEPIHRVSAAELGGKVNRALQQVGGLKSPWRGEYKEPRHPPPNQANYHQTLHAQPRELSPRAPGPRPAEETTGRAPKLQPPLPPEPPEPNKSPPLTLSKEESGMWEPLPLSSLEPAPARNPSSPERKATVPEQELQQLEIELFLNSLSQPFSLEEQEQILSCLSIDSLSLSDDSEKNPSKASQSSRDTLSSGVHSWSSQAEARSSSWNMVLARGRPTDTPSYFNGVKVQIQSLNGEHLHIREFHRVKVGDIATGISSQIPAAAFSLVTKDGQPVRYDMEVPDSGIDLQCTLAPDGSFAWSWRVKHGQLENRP
# In short: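 GST-tagged enzyme (0.2 nM) incubated with compound and 25 μM ATP in 50 mM Tris pH 7.5, 5 mM MgCl2, 1 mM EGTA, 1 mM DTT, 0.1 mM Na3VO4, 1% DMSO, 1 h at 25 °C. Stopped with anti-phospho-IKK Ser176/180 antibody; AlphaScreen bead read, blank-subtracted, IC50 from sigmoidal fit.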
# [2] = test system: JJN-3 (NIK translocated) multiple myeloma cells; assay: Antiproliferative activity on JJN-3 multiple myeloma cells (CellTiter-Glo, 96 hr), Biological Assay C; assay type: cell-based, human; conditions: JJN-3 (NIK translocated) cells, averaged values, read-out: JJN-3 Proliferation inhibition (IC50 (nM))
# In short: (§1)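 JJN-3 and KMS12-BM cells in RPMI 1640 with 10% FCS were plated at 15000–20000 cells/well and treated 96 h with a 9-point 1:3 dilution series (0.3% DMSO). Viability read by CellTiter-Glo luminescence, blank (time-zero cells) subtracted, expressed as % of untreated control; duplicate wells.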
# [3] = test system: KMS12-BM (NIK WT) multiple myeloma cells; assay: Antiproliferative activity on KMS12-BM multiple myeloma cells (CellTiter-Glo, 96 hr), Biological Assay C; assay type: cell-based, human; conditions: averaged values, read-out: KMS-12 Proliferation inhibition (IC50 (nM))
# In short: as §1
# [4] = test system: P-IKKα levels in L363 (NIK translocated multiple myeloma) cells; assay: Effect of compounds on P-IKKα levels in L363 cells (Mesoscale sandwich immuno-assay), Biological Assay B; assay type: cell-based, human; conditions: 2 hr treatment, averaged values, read-out: Inhibition of pIKKα_L-363 (IC50 (nM))
# In short: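 L363 NIK-translocated myeloma cells primed 24 h with 1 μg/ml BAFF (stock), then treated 2 h with compound (1% DMSO, 8-point 1:3 dilutions). Lysate P-IKKα measured by Mesoscale sandwich immunoassay; MG132+BAFF controls, blank with 10 μM ADS125117 subtracted. IC50 from sigmoidal fit of % inhibition versus log concentration.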
IC50 [1] [nM],"IC50 ([2]; Homo sapiens, JJN-3, 96 h) [nM]",melting point [°C],"IC50 ([3]; Homo sapiens, KMS-12-BM, 96 h) [nM]","IC50 ([4]; Homo sapiens, L-363, 2 h) [nM]",IC50 [2] [nM],IC50 [3] [nM],IC50 [4] [nM],SMILES
28.5,118,> 250,~6610,22.9,–,–,–,COc1cc(N2CCC(O)CC2)c(Cl)cc1Nc1nccc(-c2cc(C#N)c3c(c2)C(C)(C)CN3)n1 [Compound 105]
10.2,4570,140,> 10000,72.4,–,–,–,Cc1ccc(CN2CC(F)C2)cc1Nc1nccc(-c2cc(C#N)c3c(c2)[C@@](C)(CO)CN3)n1 [Compound 220]
1.4,–,190,–,–,330,~7940,3.2,Cc1ccc(C#N)cc1Nc1nccc(-c2cc(C#N)c3c(c2)[C@@](C)(CO)CN3)n1 [Compound 129]
7.9,96,223,~3160,32.4,–,–,–,C[C@]1(CO)CNc2c(C#N)cc(-c3ccnc(Nc4cc(C#N)ccc4CN4CC(F)(F)C4)n3)cc21 [Compound 227]
6,545,290,~10000,2.7,–,–,–,Cc1ccc(C#N)cc1Nc1nccc(-c2cc(C#N)c3c(c2)[C@@](C)(COC(=O)CN)CN3)n1 [Compound 137]
1.7,41,260,> 10000,~0.66,–,–,–,COC(=O)c1cc(C#N)cc(Nc2nccc(-c3cc(C#N)c4c(c3)[C@@](C)(CO)CN4)n2)c1C [Compound 200]
2,42,230,~891,2.6,–,–,–,"Cc1cc(C2CCCN(C)C2)c(C#N)cc1Nc1nccc(-c2cc(C#N)c3c(c2)[C@@](C)(CO)CN3)n1 (single isomer, unassigned) [Compound 178]"
1.3,–,174,–,–,324,> 10000,4.7,Cc1ccc(C#N)cc1Nc1nccc(-c2cc(C#N)c3c(c2)[C@@](C)(CO)CN3)n1 [Compound 131]
56.2,302,202,~8910,26.9,–,–,–,Cc1ccc(C#N)cc1Nc1nccc(-c2cc(C#N)c3c(c2)[C@@](C)(COC(=O)[C@@H](N)C(C)C)CN3)n1 [Compound 139]
1,81,207,~4680,2.3,–,–,–,Cc1cc(CCCN)c(C#N)cc1Nc1nccc(-c2cc(C#N)c3c(c2)[C@@](C)(CO)CN3)n1 [Compound 170]
12,–,138,> 10000,–,3630,–,2.2,Cc1ccc(C#N)cc1Nc1nccc(-c2cc(C#N)c3c(c2)[C@@](C)(COC(=O)CC(=O)O)CN3)n1 [Compound 142a]
4.9,178,235,~7590,12.9,–,–,–,CNC(=O)c1cc(Nc2nccc(-c3cc(C#N)c4c(c3)[C@@](C)(CO)CN4)n2)c(F)cc1OC1CC1 [Compound 157]
2.5,44,259,302,11.2,–,–,–,CCS(=O)(=O)N(C)c1cccc(Nc2nccc(-c3cc(C#N)c4c(c3)C(C)(CO)CN4)n2)c1 (stereo not drawn) [Compound 240]
5.4,120,170,> 10000,19.5,–,–,–,CC1(CO)CNc2c(C#N)cc(-c3ccnc(Nc4cc(C#N)ccc4CN4CC(F)C4)n3)cc21 (stereo not drawn) [Compound 228]
251,407,156,> 10000,20.9,–,–,–,CC(=O)OC[C@@]1(C)CNc2c(C#N)cc(-c3ccnc(Nc4cc(C#N)ccc4OCC4CC4)n3)cc21 [Compound 128]
2.6,407,263,~8130,20,–,–,–,CC(C)Oc1cc(P(C)(C)=O)ccc1Nc1nccc(-c2cc(C#N)c3c(c2)[C@@](C)(CO)CN3)n1 [Compound 18]
17,–,214,–,–,977,> 10000,~58.9,Cc1ccc(C#N)cc1Nc1nccc(-c2cc(C#N)c3c(c2)[C@@](C)(COC(=O)CC(=O)O)CN3)n1 [Compound 142b]

IC50 [1] [nM],"IC50 ([2]; Homo sapiens, JJN-3, 96 h) [nM]",melting point [°C],"IC50 ([3]; Homo sapiens, KMS-12-BM, 96 h) [nM]","IC50 ([4]; Homo sapiens, L-363, 2 h) [nM]",IC50 [2] [nM],IC50 [3] [nM],IC50 [4] [nM],SMILES
3.6,1120,224,~5250,6,–,–,–,CNC(=O)c1cc(Nc2nccc(-c3cc(C#N)c4c(c3)[C@@](C)(CO)CN4)n2)c(F)cc1F [Compound 165]
6.5,200,> 270,> 10000,12.3,–,–,–,Cc1ccc(C#N)cc1Nc1nccc(-c2cc(C#N)c3c(c2)[C@@](C)(COS(=O)(=O)O)CN3)n1 [Compound 143]
4,182,124,~1150,16.2,–,–,–,COCCCc1ccc(C#N)cc1Nc1nccc(-c2cc(C#N)c3c(c2)[C@@](C)(CO)CN3)n1 [Compound 74]
3.5,437,150,> 10000,33.1,–,–,–,Cc1ccc(C(=O)NC2CCN(C)C2)cc1Nc1nccc(-c2cc(C#N)c3c(c2)[C@@](C)(CO)CN3)n1 (mixture of isomers) [Compound 163]
27.5,1950,284,> 10000,38.9,–,–,–,C[C@]1(CO)CNc2c(C#N)cc(-c3ccnc(Nc4cc(C#N)c(C5CCOCC5)cc4OCC4CC4)n3)cc21 [Compound 19]
1.3,–,234,–,–,128,5010,2.2,Cc1ccc(C#N)cc1Nc1nccc(-c2cc(C#N)c3c(c2)[C@@](C)(CO)CN3)n1 [Compound 132]
1.7,269,219,> 10000,< 0.66,–,–,–,[2H]C([2H])(O)[C@@]1(C)CNc2c(C#N)cc(-c3ccnc(Nc4cc(C#N)ccc4C)n3)cc21 [Compound 136]
3,251,165,19,5.9,–,–,–,COCCOc1ccc(C#N)cc1Nc1nccc(-c2cc(C#N)c3c(c2)[C@@](C)(CO)CN3)n1 [Compound 66]
2.6,32,249,178,42.7,–,–,–,CN(C)Cc1cc(Nc2nccc(-c3cc(C#N)c4c(c3)[C@@](C)(CO)CN4)n2)ccc1C1CCOCC1 [Compound 236]
7.6,–,239,–,–,562,6170,19.1,"Cc1cc(F)c(C(=O)NC2CCN(C)C2)cc1Nc1nccc(-c2cc(C#N)c3c(c2)[C@@](C)(CO)CN3)n1 (single isomer, unassigned) [Compound 167]"
11.2,4790,206,> 10000,64.6,–,–,–,Cc1ccc(C(=O)N(C)C)cc1Nc1nccc(-c2cc(C#N)c3c(c2)[C@@](C)(CO)CN3)n1 [Compound 160]
4.8,251,206,> 10000,7.8,–,–,–,CNC(=O)c1cc(Nc2nccc(-c3cc(C#N)c4c(c3)[C@@](C)(CO)CN4)n2)c(OC2CC2)cc1F [Compound 156]
19.9,78,186,> 10000,5.2,–,–,–,Cc1ccc(C#N)cc1Nc1nccc(-c2cc(C#N)c3c(c2)[C@@](C)(COC(=O)CN2CCOCC2)CN3)n1 [Compound 146]
4.2,1070,304,> 10000,5,–,–,–,Cc1ccc(C#N)cc1Nc1ncnc(-c2cc(C#N)c3c(c2)[C@@](C)(CO)CN3)n1 [Compound 213]
8.7,33,212,> 10000,2.2,–,–,–,Cc1ccc(C#N)cc1Nc1nccc(-c2cc(C#N)c3c(c2)[C@@](C)(COC(=O)[C@@H](C)N)CN3)n1 [Compound 141]
10.7,~1410,246,> 10000,14.5,–,–,–,"Cc1cc(F)c(C(=O)NC2CCOC2)cc1Nc1nccc(-c2cc(C#N)c3c(c2)[C@@](C)(CO)CN3)n1 (single isomer, unassigned) [Compound 168]"
